Legend:
OCT2 [1] = target: T1, OCT2 (Homo sapiens, UniProt O15244); test: Inhibition of transporter-mediated probe uptake in CHO-K1-OCT2 cells; format: in vitro ADME
T1 construct: expressed in transfected cells; host or cells: CHO-K1
T1 sequence (O15244 1-555): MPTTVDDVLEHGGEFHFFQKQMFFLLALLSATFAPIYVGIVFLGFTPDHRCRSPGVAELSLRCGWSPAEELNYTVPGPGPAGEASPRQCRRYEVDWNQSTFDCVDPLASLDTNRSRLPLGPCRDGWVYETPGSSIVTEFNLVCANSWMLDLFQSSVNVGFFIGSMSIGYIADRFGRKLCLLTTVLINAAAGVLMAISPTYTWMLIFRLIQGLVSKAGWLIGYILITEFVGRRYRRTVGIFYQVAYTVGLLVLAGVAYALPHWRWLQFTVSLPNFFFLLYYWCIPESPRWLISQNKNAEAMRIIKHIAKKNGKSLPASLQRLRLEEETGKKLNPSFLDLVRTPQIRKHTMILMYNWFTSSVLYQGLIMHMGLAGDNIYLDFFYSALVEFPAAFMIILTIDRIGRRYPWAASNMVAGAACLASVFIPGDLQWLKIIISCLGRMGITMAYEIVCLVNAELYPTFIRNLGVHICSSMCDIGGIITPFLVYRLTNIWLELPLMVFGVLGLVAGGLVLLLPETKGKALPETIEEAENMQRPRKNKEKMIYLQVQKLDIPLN

[2] = Renal clearance after 1 mg/kg intravenous, rat; format: in vivo, male Wistar-Hannover rats; conditions: 1 mg/kg intravenously
OCT1 = target: T2, OCT1 (Homo sapiens, UniProt O15245); test: Inhibition of transporter-mediated probe uptake in CHO-K1-OCT1 cells; format: in vitro ADME
T2 construct: expressed in transfected cells; host or cells: CHO-K1
T2 sequence (O15245 1-554): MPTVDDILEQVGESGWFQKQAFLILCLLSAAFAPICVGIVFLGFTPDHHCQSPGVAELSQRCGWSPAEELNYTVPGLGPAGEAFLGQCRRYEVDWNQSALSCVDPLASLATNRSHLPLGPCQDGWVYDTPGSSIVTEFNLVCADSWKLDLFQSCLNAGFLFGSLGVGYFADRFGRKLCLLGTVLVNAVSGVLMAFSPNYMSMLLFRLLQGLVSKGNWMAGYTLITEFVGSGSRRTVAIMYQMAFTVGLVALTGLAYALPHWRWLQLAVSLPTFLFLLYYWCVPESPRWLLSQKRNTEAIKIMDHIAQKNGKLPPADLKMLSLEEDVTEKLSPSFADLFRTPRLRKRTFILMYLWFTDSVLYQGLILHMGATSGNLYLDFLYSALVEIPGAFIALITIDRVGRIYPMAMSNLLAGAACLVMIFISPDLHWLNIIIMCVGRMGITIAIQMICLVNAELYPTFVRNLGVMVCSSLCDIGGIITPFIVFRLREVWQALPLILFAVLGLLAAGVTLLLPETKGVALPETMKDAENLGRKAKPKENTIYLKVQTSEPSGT

CYP2C9 = CYP2C9 (Homo sapiens, UniProt P11712); test: Time-dependent CYP inhibition in pooled human liver microsomes; format: in vitro ADME
OCT2 [3] = target: T1, OCT2; test: Islatravir uptake as substrate, CHO-K1 vs CHO-K1-OCT2 cells; format: in vitro ADME
OAT1 [4] = target: T3, OAT1 (Homo sapiens, UniProt Q4U2R8); test: Inhibition of transporter-mediated probe uptake in MDCKII-OAT1 cells; format: in vitro ADME
T3 construct: expressed in transfected cells; host or cells: MDCKII
T3 sequence (Q4U2R8 1-563): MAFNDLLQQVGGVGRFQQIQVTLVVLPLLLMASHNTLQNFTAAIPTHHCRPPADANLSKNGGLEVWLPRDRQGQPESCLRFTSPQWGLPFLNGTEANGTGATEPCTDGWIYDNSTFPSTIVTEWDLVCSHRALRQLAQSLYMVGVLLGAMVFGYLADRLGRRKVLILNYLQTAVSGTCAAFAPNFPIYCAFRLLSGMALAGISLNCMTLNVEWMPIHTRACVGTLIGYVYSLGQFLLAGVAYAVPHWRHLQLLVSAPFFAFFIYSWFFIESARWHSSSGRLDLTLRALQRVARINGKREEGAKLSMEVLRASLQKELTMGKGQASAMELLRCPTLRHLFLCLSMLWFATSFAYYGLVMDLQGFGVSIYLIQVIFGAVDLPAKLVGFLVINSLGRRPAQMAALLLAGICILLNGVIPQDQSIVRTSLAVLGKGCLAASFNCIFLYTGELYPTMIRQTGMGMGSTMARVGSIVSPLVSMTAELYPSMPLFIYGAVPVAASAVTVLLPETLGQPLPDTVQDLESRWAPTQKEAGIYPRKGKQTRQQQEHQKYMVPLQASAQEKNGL

MATE2K = target: T4, MATE2K (Homo sapiens, UniProt Q86VL8); test: Islatravir uptake as substrate, MDCKII vs MDCKII-MATE2K cells; format: in vitro ADME
T4 construct: expressed in transfected cells; host or cells: MDCKII

BSEP = target: T5, BSEP (Homo sapiens, UniProt O95342); test: Inhibition of ATP-dependent probe uptake in Sf9 membrane vesicles; format: in vitro ADME; conditions: BSEP-mediated ATP-dependent uptake of taurocholic acid
T5 construct: purchased Thermo Fisher Scientific; host or cells: Sf9

OAT1 [5] = target: T3, OAT1; test: Islatravir uptake as substrate, MDCKII vs MDCKII-OAT1 cells; format: in vitro ADME
[6] = Renal clearance after 1 mg/kg intravenous, monkey; format: in vivo, rhesus monkeys; conditions: rhesus monkey, 1 mg/kg intravenously

T4 sequence (Q86VL8 1-566 isoform Q86VL8-3): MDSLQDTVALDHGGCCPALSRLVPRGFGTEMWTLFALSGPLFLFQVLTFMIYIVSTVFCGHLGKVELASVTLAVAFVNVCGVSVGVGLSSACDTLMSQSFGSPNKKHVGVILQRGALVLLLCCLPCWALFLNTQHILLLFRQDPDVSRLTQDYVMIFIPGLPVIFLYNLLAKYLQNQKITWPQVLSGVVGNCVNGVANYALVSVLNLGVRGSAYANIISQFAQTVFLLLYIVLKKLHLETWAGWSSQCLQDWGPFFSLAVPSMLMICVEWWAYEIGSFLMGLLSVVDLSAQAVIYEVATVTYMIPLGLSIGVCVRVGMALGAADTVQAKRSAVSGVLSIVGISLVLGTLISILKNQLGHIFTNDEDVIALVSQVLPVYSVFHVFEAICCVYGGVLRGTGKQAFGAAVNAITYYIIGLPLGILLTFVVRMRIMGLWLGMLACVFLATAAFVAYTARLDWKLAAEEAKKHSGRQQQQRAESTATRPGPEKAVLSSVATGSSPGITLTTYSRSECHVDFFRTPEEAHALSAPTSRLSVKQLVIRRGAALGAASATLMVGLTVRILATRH
Sequence of CYP2C9 (P11712 whole entry): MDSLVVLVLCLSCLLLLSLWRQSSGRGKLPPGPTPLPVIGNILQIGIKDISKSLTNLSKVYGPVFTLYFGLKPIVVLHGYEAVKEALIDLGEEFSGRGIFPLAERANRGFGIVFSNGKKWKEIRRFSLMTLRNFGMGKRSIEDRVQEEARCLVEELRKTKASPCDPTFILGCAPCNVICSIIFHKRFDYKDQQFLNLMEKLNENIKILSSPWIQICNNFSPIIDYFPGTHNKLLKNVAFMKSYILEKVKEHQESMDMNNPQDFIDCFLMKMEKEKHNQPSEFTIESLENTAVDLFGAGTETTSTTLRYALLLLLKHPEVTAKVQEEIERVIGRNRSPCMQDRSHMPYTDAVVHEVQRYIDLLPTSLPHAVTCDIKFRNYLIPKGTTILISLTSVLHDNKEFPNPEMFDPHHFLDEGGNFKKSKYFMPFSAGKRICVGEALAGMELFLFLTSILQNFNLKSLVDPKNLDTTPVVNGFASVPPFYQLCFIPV
T5 sequence (O95342 whole entry): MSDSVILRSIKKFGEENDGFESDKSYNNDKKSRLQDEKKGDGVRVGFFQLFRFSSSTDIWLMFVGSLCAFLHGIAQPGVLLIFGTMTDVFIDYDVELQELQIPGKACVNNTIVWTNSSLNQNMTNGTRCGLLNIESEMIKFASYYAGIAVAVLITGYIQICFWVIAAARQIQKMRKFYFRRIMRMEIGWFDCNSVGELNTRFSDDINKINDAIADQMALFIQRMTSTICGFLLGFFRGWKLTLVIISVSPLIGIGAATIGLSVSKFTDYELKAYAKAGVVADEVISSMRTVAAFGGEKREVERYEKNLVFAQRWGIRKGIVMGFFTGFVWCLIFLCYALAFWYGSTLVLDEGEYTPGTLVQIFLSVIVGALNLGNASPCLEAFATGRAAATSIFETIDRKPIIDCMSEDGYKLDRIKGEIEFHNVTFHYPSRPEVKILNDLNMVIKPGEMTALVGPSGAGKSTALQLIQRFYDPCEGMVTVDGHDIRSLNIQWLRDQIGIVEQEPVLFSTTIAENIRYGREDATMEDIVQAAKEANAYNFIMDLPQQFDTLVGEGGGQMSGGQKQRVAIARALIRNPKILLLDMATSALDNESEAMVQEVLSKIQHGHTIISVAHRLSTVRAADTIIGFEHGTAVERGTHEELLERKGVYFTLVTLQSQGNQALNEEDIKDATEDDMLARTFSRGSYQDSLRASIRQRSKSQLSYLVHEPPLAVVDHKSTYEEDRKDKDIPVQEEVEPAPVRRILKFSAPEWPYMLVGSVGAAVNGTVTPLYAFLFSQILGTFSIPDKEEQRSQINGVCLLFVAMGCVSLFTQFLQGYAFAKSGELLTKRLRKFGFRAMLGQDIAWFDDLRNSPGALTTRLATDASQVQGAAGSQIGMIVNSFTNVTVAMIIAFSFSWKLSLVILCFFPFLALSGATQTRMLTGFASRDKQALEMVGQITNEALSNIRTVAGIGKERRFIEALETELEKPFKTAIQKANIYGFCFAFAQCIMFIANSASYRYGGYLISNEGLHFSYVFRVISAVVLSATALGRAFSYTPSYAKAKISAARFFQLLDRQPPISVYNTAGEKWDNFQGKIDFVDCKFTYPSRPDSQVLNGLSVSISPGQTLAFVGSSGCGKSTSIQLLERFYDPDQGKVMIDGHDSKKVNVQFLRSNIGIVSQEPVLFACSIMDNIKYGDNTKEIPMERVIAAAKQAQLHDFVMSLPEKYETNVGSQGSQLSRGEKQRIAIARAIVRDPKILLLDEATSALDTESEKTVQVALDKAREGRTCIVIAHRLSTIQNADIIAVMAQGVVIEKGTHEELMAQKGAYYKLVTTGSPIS

C#C[C@]1(CO)O[C@@H](n2cnc3c(N)nc(F)nc32)C[C@@H]1O [Islatravir, 4′-Ethynyl-2-fluoro-2′-deoxyadenosine]
inhibition at 100 µM (OCT2 [1]; CHO-K1-OCT2 cells, probe metformin, 100 µM islatravir): 15%
IC50 (OCT2 [1]; OCT2-mediated metformin uptake, read-out: Islatravir IC50): > 100 µM
Maximum Unbound Plasma Concentration (Imax,u) to IC50 Ratio (OCT2 [1]; OCT2, 60 mg, Cmax 1.01 µM, fu,p 0.96): <0.010 µM
DDI Potential (OCT2 [1]; OCT2 inhibition, FDA, EMA, PMDA guidance): Low risk
Renal Excretion (% Total Plasma Clearance) [2]: 17%
CL renal ([2]; male, Wistar-Hannover, plasma and urine, iv, urine 0-24 h): 11.5 mL/min/kg
IC50 (OCT1; OCT1-mediated uptake of metformin, read-out: Islatravir IC50): > 300 µM
Maximum Unbound Inlet Concentration (Iin,max,u) to IC50 Ratio (OCT1; OCT1, 60 mg dose): <0.035
DDI Potential (OCT1; OCT1 inhibition, FDA, EMA, PMDA guidance): Low risk
time-dependent inhibition (CYP2C9; CYP2C9, pre-incubation of 10 and 50 µM for up to 30 min): no time-dependent inhibition
DDI Potential (CYP2C9; CYP2C9 time dependent inhibition): Low risk ^h
IC50 (CYP2C9; time dependent, CYP2C9, read-out: Islatravir IC50): > 50 µM
Islatravir Uptake Transporter-Expressing Cells (OCT2 [3]; CHO-K1-OCT2, 1 µM [3H]islatravir, 5 min, mean ± SD, n = 3): 0.79 ± 0.14 pmole/10^6 Cells
Fold-Difference (OCT2 [3]; OCT2, uptake into transporter-expressing cells to control cells, 5 min): 0.81
Islatravir Uptake Control Cells (OCT2 [3]; OCT2 row, CHO-K1 control cells, 1 µM [3H]islatravir, 5 min, mean ± SD, n = 3): 0.97 ± 0.01 pmole/10^6 Cells
Conclusions (OCT2 [3]; OCT2 substrate assessment): Non-substrate
IC50 (OAT1 [4]; OAT1-mediated cidofovir uptake, read-out: Islatravir IC50): > 100 µM
Maximum Unbound Plasma Concentration (Imax,u) to IC50 Ratio (OAT1 [4]; OAT1, 60 mg, Cmax 1.01 µM, fu,p 0.96): <0.010 µM
DDI Potential (OAT1 [4]; OAT1 inhibition, FDA, EMA, PMDA guidance): Low risk
Islatravir Uptake Control Cells (MATE2K; MATE2K row, MDCKII control cells, 2 µM [14C]islatravir, 20 min, mean ± SD, n = 3): 3.12 ± 0.17 pmole/10^6 Cells
Conclusions (MATE2K; MATE2K substrate assessment): Non-substrate
Fold-Difference (MATE2K; MATE2K, uptake into transporter-expressing cells to control cells, 20 min): 1.14
Islatravir Uptake Transporter-Expressing Cells (MATE2K; MDCKII-MATE2K, 2 µM [14C]islatravir, 20 min, mean ± SD, n = 3): 3.56 ± 0.17 pmole/10^6 Cells
IC50 (BSEP): > 100 µM
Islatravir Uptake Transporter-Expressing Cells (OAT1 [5]; MDCKII-OAT1, 1 µM [3H]islatravir, 5 min, mean ± SD, n = 3): 0.72 ± 0.04 pmole/10^6 Cells
Fold-Difference (OAT1 [5]; OAT1, uptake into transporter-expressing cells to control cells, 5 min): 1.04
Islatravir Uptake Control Cells (OAT1 [5]; OAT1 row, MDCKII control cells, 1 µM [3H]islatravir, 5 min, mean ± SD, n = 3): 0.69 ± 0.07 pmole/10^6 Cells
Conclusions (OAT1 [5]; OAT1 substrate assessment): Non-substrate
CL renal ([6]; plasma and urine, iv, urine 0-24 h): 8.7 mL/min/kg
Renal Excretion (% Total Plasma Clearance) [6]: 51%
